The target of one assay is T1, human TRPV3 (Homo sapiens, UniProt Q8NET8).
T1 construct: expressed in transfected cells; host or cells: overexpressing cells
T1 sequence (Q8NET8 1-790): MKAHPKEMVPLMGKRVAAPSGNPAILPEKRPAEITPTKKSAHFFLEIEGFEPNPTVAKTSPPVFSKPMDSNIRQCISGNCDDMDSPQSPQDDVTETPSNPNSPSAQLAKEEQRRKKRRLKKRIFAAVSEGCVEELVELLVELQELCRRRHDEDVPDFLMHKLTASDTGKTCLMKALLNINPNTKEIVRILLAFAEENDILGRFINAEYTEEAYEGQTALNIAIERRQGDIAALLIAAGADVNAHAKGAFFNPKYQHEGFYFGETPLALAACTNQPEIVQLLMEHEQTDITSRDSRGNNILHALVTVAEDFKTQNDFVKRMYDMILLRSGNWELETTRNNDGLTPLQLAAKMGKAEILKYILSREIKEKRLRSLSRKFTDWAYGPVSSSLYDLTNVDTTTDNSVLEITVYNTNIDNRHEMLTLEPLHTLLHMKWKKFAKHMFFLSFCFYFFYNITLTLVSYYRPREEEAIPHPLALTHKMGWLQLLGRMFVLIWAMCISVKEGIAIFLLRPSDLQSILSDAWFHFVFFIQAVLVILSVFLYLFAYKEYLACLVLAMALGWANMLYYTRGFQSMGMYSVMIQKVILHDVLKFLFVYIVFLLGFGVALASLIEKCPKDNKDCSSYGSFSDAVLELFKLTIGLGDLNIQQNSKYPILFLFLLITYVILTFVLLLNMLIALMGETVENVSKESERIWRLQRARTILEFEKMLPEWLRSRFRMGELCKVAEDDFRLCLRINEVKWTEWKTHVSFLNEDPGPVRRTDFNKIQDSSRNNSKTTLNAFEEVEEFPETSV
Briefly: In vitro Ca2+ flux counter-screen in human TRPV3 overexpressing cells. Format: cell-based. The following applies: counter-screen; read-out: TRPV3 EC50. A general note: Calcium flux is commonly read through the fluorescence of an indicator in the cells.

Another assay deals with MDA-MB-231. Briefly: Human cancer cell growth inhibition assay (ATP assay), MDA-MB-231. Format: cell-based. Particulars: Homo sapiens, MDA-MB-231, 96 h; 4 days; Means±SEM from three independent experiments; read-out: MDA-MB-231, IC50.
The next assay relates to MDA-MB-231 cell invasion. Briefly: Cancer cell invasion assay, MDA-MB-231. Type of assay: cell-based, human. Particulars: 24 h. As for the experimental part: A cancer cell invasion assay was developed based on literature protocols (Methods 2005, 37, 208; EMBO J 2002, 21, 6289; Cellular Signalling 2012, 24, 1276.). Membrane matrix gel (Cat #A1413201, ThermoFisher) was diluted in ice-cold, serum-free RPMI 1640 Medium (Cat #31800022, ThermoFisher) at a concentration of 0.5-0.6 mg/mL. Then it was added to the upper compartment (100 μL per cup) of millicell inserts (Cat #PI8P01250, ThermoFisher) placed in a 24-well plate (Part no. 229123, Celltreat). The plate was incubated at 37° C. for 2 h to allow the liquid gel to solidify. RPMI 1640 Medium supplemented with 10% FBS (300 μL) was added to the well of the plate (lower compartment) as attractant, then DMSO or compounds were added. Human cancer cells (1×10^5 cells in 200 μL of RPMI 1640 Medium) were added to the upper compartment of the insert, then DMSO or compounds were added. After the plate was incubated at 37° C. for 24 h, the cells were fixed on the lower side of the insert membrane with 4% formaldehyde and stained with 1% crystal violet (Part no. IS12146, Innovating Science). The invaded cells on the lower side of the filter were counted under an inverted microscope equipped with either a 4× or a 10× objective (FIG. 11). The cell numbers from 5 random views were averaged and plotted as percentage against the DMSO control (FIG. 12A).

Another assay has as its system OVCAR-8. Briefly: Human cancer cell growth inhibition assay (ATP assay), OVCAR-8. Particulars: Homo sapiens, OVCAR-8, 96 h; 4 days; Means±SEM from three independent experiments; read-out: OVCAR-8, IC50. Format: cell-based.
The next assay concerns NCI-H460. Briefly: Human cancer cell growth inhibition assay (ATP assay), NCI-H460. Type of assay: cell-based. Particulars: Homo sapiens, NCI-H460, 96 h; 4 days; Means±SEM from three independent experiments; read-out: NCl-H460, IC50.
Another assay addresses T2, human TRPA1 (Homo sapiens, UniProt O75762).
T2 construct: expressed in transfected cells; host or cells: overexpressing cells
As to the kind of experiment: In vitro Ca2+ flux counter-screen in human TRPA1 overexpressing cells. Format: cell-based. The following applies: counter-screen; read-out: TRPA1 EC50.

The next assay has as its target T3, human TRPV1 (Homo sapiens, UniProt Q8NER1).
T3 construct: DYK (FLAG) tag from vector pcDNA3.1+/C-(K)DYK (C); host or cells: FreeStyle 293-F cells (HEK 293), transient transfection
As to the kind of experiment: In vitro Ca2+ flux assay in human TRPV1 transfected HEK 293 cells. The following applies: Means±SEM from three independent experiments; read-out: TRPV1 EC50. Format: cell-based.

T2 sequence (O75762 whole entry): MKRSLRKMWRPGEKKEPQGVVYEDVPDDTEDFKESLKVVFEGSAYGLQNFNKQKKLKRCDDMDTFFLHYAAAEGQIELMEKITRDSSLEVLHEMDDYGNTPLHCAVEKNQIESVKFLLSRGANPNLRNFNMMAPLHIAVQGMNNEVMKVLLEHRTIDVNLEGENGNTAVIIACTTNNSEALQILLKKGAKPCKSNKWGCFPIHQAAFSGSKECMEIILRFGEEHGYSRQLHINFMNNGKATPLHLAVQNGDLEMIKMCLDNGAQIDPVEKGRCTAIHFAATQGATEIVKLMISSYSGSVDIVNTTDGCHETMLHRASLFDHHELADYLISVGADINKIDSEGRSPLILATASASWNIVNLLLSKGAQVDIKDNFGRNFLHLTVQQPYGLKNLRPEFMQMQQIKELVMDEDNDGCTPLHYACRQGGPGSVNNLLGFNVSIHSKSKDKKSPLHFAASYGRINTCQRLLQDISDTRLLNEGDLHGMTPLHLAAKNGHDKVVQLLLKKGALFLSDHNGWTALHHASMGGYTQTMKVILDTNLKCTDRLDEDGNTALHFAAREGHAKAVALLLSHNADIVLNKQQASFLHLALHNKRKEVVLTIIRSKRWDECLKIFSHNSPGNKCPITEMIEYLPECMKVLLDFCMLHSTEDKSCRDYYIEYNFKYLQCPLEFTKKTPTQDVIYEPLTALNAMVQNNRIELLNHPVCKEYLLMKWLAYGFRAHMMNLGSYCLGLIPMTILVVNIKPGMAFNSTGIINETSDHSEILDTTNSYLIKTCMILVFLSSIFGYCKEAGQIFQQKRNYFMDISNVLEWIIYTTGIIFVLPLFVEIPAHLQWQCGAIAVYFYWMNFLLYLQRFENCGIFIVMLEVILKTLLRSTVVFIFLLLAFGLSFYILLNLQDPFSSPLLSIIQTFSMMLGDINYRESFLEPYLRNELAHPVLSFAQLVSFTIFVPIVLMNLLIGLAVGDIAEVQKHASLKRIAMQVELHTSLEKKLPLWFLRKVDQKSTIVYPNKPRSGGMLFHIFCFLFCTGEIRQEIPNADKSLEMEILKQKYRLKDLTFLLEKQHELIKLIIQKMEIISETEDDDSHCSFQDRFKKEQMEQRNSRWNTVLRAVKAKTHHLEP
T3 sequence (Q8NER1 whole entry): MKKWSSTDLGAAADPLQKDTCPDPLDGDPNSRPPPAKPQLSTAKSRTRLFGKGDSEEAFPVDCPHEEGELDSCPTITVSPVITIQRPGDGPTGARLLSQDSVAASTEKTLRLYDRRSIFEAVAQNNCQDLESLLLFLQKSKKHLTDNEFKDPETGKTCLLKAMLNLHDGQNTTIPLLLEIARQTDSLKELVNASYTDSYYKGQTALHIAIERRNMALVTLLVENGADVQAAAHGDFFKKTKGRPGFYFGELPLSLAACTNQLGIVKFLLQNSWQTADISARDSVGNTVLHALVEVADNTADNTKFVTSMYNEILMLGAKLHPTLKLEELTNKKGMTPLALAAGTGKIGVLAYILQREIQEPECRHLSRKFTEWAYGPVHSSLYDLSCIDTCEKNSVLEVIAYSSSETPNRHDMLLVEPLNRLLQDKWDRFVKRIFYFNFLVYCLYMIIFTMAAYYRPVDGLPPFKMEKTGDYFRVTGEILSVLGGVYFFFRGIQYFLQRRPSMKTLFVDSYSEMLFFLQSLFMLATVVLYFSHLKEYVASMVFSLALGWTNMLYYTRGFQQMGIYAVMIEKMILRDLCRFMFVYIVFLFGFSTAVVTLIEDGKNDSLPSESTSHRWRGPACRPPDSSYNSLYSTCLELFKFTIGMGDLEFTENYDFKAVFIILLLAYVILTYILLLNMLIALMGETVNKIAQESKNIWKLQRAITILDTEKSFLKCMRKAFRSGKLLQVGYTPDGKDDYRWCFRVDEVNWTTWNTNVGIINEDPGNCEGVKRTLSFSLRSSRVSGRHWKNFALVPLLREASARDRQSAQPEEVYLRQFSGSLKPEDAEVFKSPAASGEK

By EC50 is commonly meant the concentration at which the effect is half-maximal. For orientation: IC50 means the midpoint of a concentration-inhibition curve. `COc1cc(CC2=NCC(c3ccccc3)O2)ccc1O` (stereo not drawn) [YB-3]: the EC50 at human TRPV3 and on human TRPA1 was above 10 µM each time. For the same compound, the IC50 worked out at 430 ± 90 µM in the assay on MDA-MB-231, 500 ± 120 µM in the assay on OVCAR-8 and 320 ± 86 µM in the assay with NCI-H460. The “inhibition of MDA-MB-231 cell invasion” value in the assay with MDA-MB-231 cell invasion is reported as “dose-dependently inhibited”.

In the case of `COc1cc(CC2=NCC(c3ccc(C(F)(F)F)cc3)O2)ccc1O` (stereo not drawn) [YB-4], the EC50 on human TRPV3 and at human TRPA1 was above 10 µM in each case. Also, the values for the IC50 with MDA-MB-231, in the assay on OVCAR-8 and in the assay with NCI-H460 were 469 ± 130 µM, 300 ± 60 µM and 270 ± 45 µM, respectively. Further, in the assay with MDA-MB-231 cell invasion, the “inhibition of MDA-MB-231 cell invasion” value is on record as “dose-dependently inhibited”.

In the case of `COc1cc(CC2=NCC(c3ccc(-c4ccccc4)cc3)O2)ccc1O` (stereo not drawn) [YB-5], the EC50 at human TRPV3 and on human TRPA1 was above 10 µM in each case. The IC50 in the assay with MDA-MB-231 was found to be 542 ± 101 µM; with OVCAR-8, 150 ± 42 µM; with NCI-H460, 210 ± 48 µM. Besides, the “inhibition of MDA-MB-231 cell invasion” value in the assay with MDA-MB-231 cell invasion is reported as “dose-dependently inhibited”.

As for `COc1cc(CNC(=O)CCCC/C=C/C(C)C)ccc1NS(C)(=O)=O` [YB-6], the EC50 at human TRPV3 and at human TRPA1 was above 10 µM each time. Besides, the IC50 worked out at 867 ± 72 µM with MDA-MB-231, 400 ± 51 µM with OVCAR-8 and 400 ± 46 µM in the assay with NCI-H460. In the assay with MDA-MB-231 cell invasion, the “inhibition of MDA-MB-231 cell invasion” value is given as “dose-dependently inhibited”.

Turning to `COc1cc(CNC(=O)CCCC/C=C/C(C)C)ccc1N(S(C)(=O)=O)S(C)(=O)=O` [YB-7], the EC50 on human TRPV3 and at human TRPA1 was above 10 µM each time. For the same compound, the IC50 in the assay on MDA-MB-231 is 386 ± 107 µM; with OVCAR-8 it was 310 ± 45 µM; with NCI-H460, 200 ± 49 µM. Moreover, the “inhibition of MDA-MB-231 cell invasion” value in the assay on MDA-MB-231 cell invasion is “dose-dependently inhibited”.

With `CNc1ccc(CNC(=O)CCCC/C=C/C(C)C)cc1OC` [YB-8], the EC50 on human TRPV3 and at human TRPA1 was above 10 µM each time. For the same compound, the IC50 turned out to be 311 ± 31 µM with MDA-MB-231, 500 ± 81 µM in the assay with OVCAR-8 and 250 ± 23 µM in the assay on NCI-H460. Further, in the assay on MDA-MB-231 cell invasion, the “inhibition of MDA-MB-231 cell invasion” value is given as “dose-dependently inhibited”.

Consider `COc1cc(CC(=O)N/C=C/c2ccc(-c3ccccc3)cc2)ccc1O` [YB-12], for which the EC50 on human TRPV3 and at human TRPA1 was above 10 µM each time. Moreover, the values for the IC50 in the assay on MDA-MB-231, in the assay with OVCAR-8 and in the assay on NCI-H460 were 136 ± 29 µM, 129 ± 20 µM and 61 ± 21 µM, respectively. Also, the “inhibition of MDA-MB-231 cell invasion” value with MDA-MB-231 cell invasion is listed as “dose-dependently inhibited”.

Take `COCCOCCOCCC(=O)Nc1ccc(CNC(=O)CCCC/C=C/C(C)C)cc1OC` [YB-13]: the EC50 at human TRPV3 and on human TRPA1 was above 10 µM each time. In addition, the IC50 stood at 107 ± 7.5 µM in the assay on MDA-MB-231, 200 ± 16 µM with OVCAR-8 and 100 ± 11 µM in the assay with NCI-H460. Moreover, in the assay on MDA-MB-231 cell invasion, the “inhibition of MDA-MB-231 cell invasion” value is given as “dose-dependently inhibited”.

Regarding `COc1ccc(/C=C/NC(=O)Cc2ccc(O)c(OC)c2)cc1` [YB-14], the EC50 at human TRPV3 and on human TRPA1 was above 10 µM each time. Also, the values for the IC50 in the assay with MDA-MB-231, with OVCAR-8 and in the assay with NCI-H460 were 300 ± 46 µM, 500 ± 57 µM and above 300 µM, respectively.

As to `COc1cc(CC(=O)N/C=C/c2ccc(-c3ccccc3)cc2)ccc1N` [YB-19], the EC50 on human TRPV3 and on human TRPA1 was above 10 µM throughout. In addition, the figures for the IC50 in the assay with MDA-MB-231, in the assay on OVCAR-8 and in the assay on NCI-H460 were 103 ± 18 µM, 100 ± 15 µM and 117 ± 16 µM, respectively.

As for `COc1ccc(/C=C/NC(=O)Cc2ccc(N)c(OC)c2)cc1` [YB-20], the EC50 on human TRPV3 and on human TRPA1 was above 10 µM throughout. In addition, the IC50 in the assay on MDA-MB-231 is 86 ± 14 µM; in the assay on OVCAR-8, 283 ± 38 µM; in the assay on NCI-H460, 279 ± 42 µM.

Turning to `COc1cc(CC(=O)N/C=C/c2ccc(C(F)(F)F)cc2)ccc1NC(=O)CCCC/C=C/C(C)C` [YB-29], the EC50 on human TRPV3, on human TRPV1 and at human TRPA1 was above 10 µM throughout.

As for `COc1cc(CC(=O)N/C=C/c2ccc(C(F)(F)F)cc2)ccc1NC(C)=O` [YB-30], the EC50 on human TRPV3 is above 10 µM; at human TRPV1, 8.8 ± 0.9 µM; on human TRPA1, above 10 µM.

These data come from US20240116856A1 (Young BioPharma, LLC, priority 2020, published 2024).
